Laboratory results: publication PMC12263571, “Antiviral effects of mogroside V against porcine reproductive and respiratory syndrome virus in vitro” (Frontiers in Microbiology, 2025)
Read-outs that look alike come from different tables or passages of the source.

Tests used:
Marc-145 cells = assay: CCK-8 cytotoxicity assay in Marc-145 cells; assay type: cell-based
Procedure: (§1) The cytotoxicity of MV was assessed using the Cell Counting Kit-8 (CCK-8) assay to determine cell viability. Porcine alveolar macrophages (PAMs) and Marc-145 cells were seeded in 96-well plates and treated with varying concentrations of MV (0, 100, 200, 400 or 800 μM) for 24, 48, 72, and 96 h. Following the manufacturer's protocol, CCK-8 reagent was added to each well, and cells were incubated for 2 h at 37°C under 5% CO2. Absorbance was measured at 450 nm using a microplate reader. Cell viability (%) was calculated using the formula:Cell viability (%) = [OD (sample) – OD (blank)/OD (control) – OD (blank)] × 100%, where OD (blank) represents the background absorbance of cell-free medium, and OD (control) denotes untreated cells.
(§2) The half-maximal inhibitory concentration (IC50) value for MV-mediated cytotoxicity was calculated through nonlinear regression fitting of dose-response curves.

[1] = system: Porcine alveolar macrophages (PAMs); assay: CCK-8 cytotoxicity assay in PAM cells; assay type: cell-based
Procedure: as §1, §2

HP-PRRSV-GFP = assay: Antiviral assay (TCID50, RT-qPCR, IFA) against HP-PRRSV-GFP strain in Marc-145 and PAM cells; assay type: cell-based, porcine reproductive and respiratory syndrome virus
Procedure: (§3) To investigate the stage-specific antiviral effects of mogroside V (MV) and evaluate its ability to inhibit PRRSV replication in Marc-145 and PAM cells, three distinct treatment groups were established for in vitro evaluation: pre-treatment group, post-treatment group, and co-treatment group. Viral replication was assessed through multiple approaches: quantification of viral mRNA copies by RT-qPCR, determination of viral titers using the TCID50 method, and analysis of PRRSV N protein expression via immunofluorescence assay (IFA). The experimental design was as follows:
(§4) Pre-treatment group: to investigate the preventive effect of MV prior to PRRSV infection, Marc-145 or PAM cells were pretreated with MV before viral challenge. Cells in good growth condition were seeded in 6-well plates and cultured until monolayer formation. After removing the old medium, cells were washed twice with PBS, followed by incubation with varying concentrations of MV for 24 h. The drug was then removed, and cells were washed twice with PBS before infection with PRRSV (100 TCID50) for 48 h. Subsequently, viral mRNA copies, viral titers, and PRRSV N protein fluorescence expression were measured to calculate viral inhibition rates.
(§5) Post-treatment group: In order to investigate the effect of MV on PRRSV infection, MV was added after Marc-145 or PAM cells were infected with PRRSV. The cells with good growth status were inoculated in the 6-well cell culture plate. After the cells grew to monolayer, the old medium was discarded and the cells were cleaned twice with PBS. PRRSV (100 TCID50) was inoculated and incubated for 1 h, during which the virus could be shaken repeatedly to fully interact with cells. The virus venom was removed, washed twice with PBS, and incubated with different concentrations of MV for 48 h. After that, the viral mRNA copies and viral titer were detected, the viral inhibition rate was calculated, and the fluorescence expression of PRRSV N protein was observed.
(§6) Co-treatment group: In order to study the direct effect of MV on PRRSV, PRRSV and MV were simultaneously inoculated in Marc-145 or PAM cells for treatment. The cells with good growth status were inoculated in the 6-well cell culture plate. After the cells grew to monolayer, the old medium was discarded and the cells were cleaned twice with PBS. MV at different concentrations was mixed with PRRSV (100 TCID50) and inoculated into Marc-145 and PAM cells for 48 h. After that, the viral mRNA copies and viral titer were detected, viral inhibition rate was calculated, and the fluorescence expression of PRRSV N protein was observed.
(§7) Real-time quantitative PCR (RT-qPCR) was performed to determine PRRSV gene expression levels. Viral RNA was extracted from cell culture supernatants using a commercial viral DNA/RNA extraction kit according to the manufacturer's protocol, with subsequent storage at −80°C until further analysis. RT-qPCR amplification were conducted using TransScript Green One-Step qRT-PCR SuperMix kit.
(§8) The supernatant from 6-well culture plates was collected into 1.5 mL microcentrifuge tubes and stored at −80°C for subsequent analysis. Cells were washed twice with PBS and fixed with ice-cold methanol for 15 min at room temperature. Non-specific binding sites were blocked with 1% BSA containing 0.05% Tween 20 for 30 min at ambient temperature. Cells were then incubated with anti-PRRSV N protein monoclonal antibody either for 2 h at 37°C or overnight at 4°C. Following primary antibody incubation, cells were treated with fluorophore-conjugated secondary antibody (goat anti-mouse IgG, Alexa Fluor 488) for 1 h at 37°C. Nuclei were counterstained with DAPI for 10 min at room temperature protected from light. Fluorescence microscopy was performed to examine the subcellular distribution and expression levels of PRRSV N protein. Stained cell monolayers were visualized under 4 × , 10 × , and 20 × objective lenses using an epifluorescence microscope. […]

NADC30 strain = assay: Antiviral assay (TCID50, RT-qPCR, IFA) against NADC30 strain in Marc-145 and PAM cells; assay type: cell-based, porcine reproductive and respiratory syndrome virus; conditions: for viral titers: co-treatment; for PRRSV N protein expression (IFA): PAMs, pre-treatment
Procedure: as §3, §4, §5, §6, §7, §8

PRRSV = assay: Antiviral assay against PRRSV, both strains (HP-PRRSV-GFP and NADC30) taken together; assay type: cell-based, porcine reproductive and respiratory syndrome virus
Procedure: as §3, §4, §5, §6, §7, §8

[2] = system: immunomodulatory cytokines gene expression in PAMs; assay: RT-qPCR of immunoregulatory factor gene expression in PAMs; assay type: cell-based, porcine
[3] = Marc-145 and PAM cells, 400 μM MV
[4] = Marc-145 and PAM cells, MV ≤ 200 μM
[5] = pre-treatment, 400 μM MV, both cell types, vs untreated controls, P < 0.01

C[C@H](CC[C@@H](O[C@@H]1O[C@H](CO[C@@H]2O[C@H](CO)[C@@H](O)[C@H](O)[C@H]2O)[C@@H](O)[C@H](O)[C@H]1O[C@@H]1O[C@H](CO)[C@@H](O)[C@H](O)[C@H]1O)C(C)(C)O)[C@H]1CC[C@@]2(C)[C@@H]3CC=C4[C@@H](CC[C@H](O[C@@H]5O[C@H](CO[C@@H]6O[C@H](CO)[C@@H](O)[C@H](O)[C@H]6O)[C@@H](O)[C@H](O)[C@H]5O)C4(C)C)[C@]3(C)[C@H](O)C[C@]12C [MV, Mogroside V]
cell viability (Marc-145 cells; Marc-145 cells, 400 μM MV): exceeded 75% | IC50 (Marc-145 cells; Marc-145 cells, 24 h): 686 µM | IC50 (Marc-145 cells; Marc-145 cells, 48 h): 756 µM | IC50 (Marc-145 cells; Marc-145 cells, 72 h): 756 µM | IC50 (Marc-145 cells; Marc-145 cells, 96 h): 760 µM | maximum safe drug concentration (Marc-145 cells; PAM and Marc-145 cells): 400 µM | cell viability ([1]; PAM cells, 400 μM MV): exceeded 75% | IC50 ([1]; PAM cells, 24 h, read-out: IC50 (cytotoxicity)): 577 µM | IC50 ([1]; PAM cells, 48 h, read-out: IC50 (cytotoxicity)): 599 µM | IC50 ([1]; PAM cells, 72 h, read-out: IC50 (cytotoxicity)): 704 µM | IC50 ([1]; PAM cells, 96 h, read-out: IC50 (cytotoxicity)): 582 µM | IC50 ([1]; all IC50 values, Marc-145 and PAM cells, 24-96 h, read-out: IC50 values, all): ≥ 577 µM | increase in mRNA inhibition, 400 μM vs 200 μM (HP-PRRSV-GFP; Marc-145 and PAM cells): 53 percentage-point | increase in viral titer inhibition, 400 μM vs 200 μM (HP-PRRSV-GFP; Marc-145 and PAM cells): 52 percentage-point | average mRNA inhibition rate (HP-PRRSV-GFP; [3]): exceeding 95% | average viral titer inhibition rate (HP-PRRSV-GFP; [3]): exceeding 95% | average mRNA inhibition rate (HP-PRRSV-GFP; [4]): below 42% | average viral titer inhibition rate (HP-PRRSV-GFP; [4]): below 43% | viral titers (HP-PRRSV-GFP; Marc-145 cells, co-treatment, 400 μM MV): below the detection threshold | viral titers (HP-PRRSV-GFP; PAM cells, co-treatment, 400 μM MV): below the detection threshold | viral mRNA copies (HP-PRRSV-GFP; PAMs, pre-treatment, 200 μM MV, P < 0.05): significantly suppressed | viral titers (HP-PRRSV-GFP; PAMs, pre-treatment, 200 μM MV, P > 0.05): no significant reduction | enhancement in mRNA inhibition, 400 μM vs 200 μM (NADC30 strain; Marc-145 and PAM cells): 49 percentage-point | improvement in viral titer inhibition, 400 μM vs 200 μM (NADC30 strain; Marc-145 and PAM cells): 43 percentage-point | average mRNA inhibition rate (NADC30 strain; [3]): > 94% | average viral titer inhibition rate (NADC30 strain; [3]): > 98% | average mRNA inhibition rate (NADC30 strain; [4]): below 45% | average viral titer inhibition rate (NADC30 strain; [4]): below 55% | viral titers (NADC30 strain; Marc-145 cells, 400 μM MV): below the detection threshold | viral titers (NADC30 strain; PAM cells, 400 μM MV (CPE in only two replicate wells)): approached the lower detection limit | PRRSV N protein expression (IFA) (NADC30 strain; 400 μM MV, P < 0.01): significantly reduced | PRRSV N protein expression (IFA) (NADC30 strain; 100 and 200 μM MV): no statistically significant effects | inhibition rate for viral titers (PRRSV; 200 μM MV, Marc-145 and PAM cells, mean values across all treatment groups): 43% | maximal inhibition of viral titers (PRRSV; 400 μM MV): up to 100% | greater suppression of viral mRNA, high- vs low-concentration group (PRRSV; 400 μM vs 200 μM MV): 51% | viral fluorescence intensity (IFA) (PRRSV; Marc-145 cells, pre-treatment, 400 μM MV, P < 0.01): markedly diminished | PRRSV N protein expression (IFA) (PRRSV; Marc-145 or PAM cells, 400 μM MV, post-infection and co-treatment regimens): no detectable PRRSV N protein expression | viral replication in cells (PRRSV; co-treatment, 400 μM MV, P < 0.01): markedly suppressed | viral titers (PRRSV; post-treatment (1 h post-infection), 400 μM MV, Marc-145 and PAM cells): undetectable levels | viral mRNA copies (PRRSV; post-treatment (1 h post-infection), 400 μM MV, Marc-145 and PAM cells, P < 0.01): significantly reduced | PRRSV mRNA levels (PRRSV; [5]): significantly reduced | viral titers (PRRSV; [5]): significantly reduced | pro-inflammatory cytokine storm, such as excessive TNF-α secretion [2]: no evidence of a pro-inflammatory cytokine storm | IL-1 gene expression ([2]; RT-qPCR): significantly upregulates | IL-1β gene expression ([2]; RT-qPCR): significantly upregulates | IL-2 gene expression ([2]; RT-qPCR): significantly upregulates | IL-8 gene expression ([2]; RT-qPCR): significantly upregulates | IL-18 gene expression ([2]; RT-qPCR): significantly upregulates
